Reference: patent US20040101521A1, “Iron sequestration or elimination to reduce neurodegeneration or Parkinsons disease progression” (The Buck Institute for Research on Aging, priority 2002, published 2004)

Experiments:
[1] = Total SN iron content by mass spectrometry and MRI in CQ-fed mice; assay type: in vivo, mouse; conditions: CQ 30 mg/kg daily oral gavage, 8 weeks, C57B1 mice
Procedure: Mice were housed according to standard animal care protocols, fed ad libitum, kept on a 12-hr light/dark cycle and maintained in a pathogen-free environment in the Buck Institute Vivarium. Animals used for studies were young adults (2-6 months of age). […] For CQ studies, C57B1 mice were obtained from Jackson Labs and randomized for therapy trials. CQ was suspended in 0.05% carboxymethylcellulose (Sigma) and delivered via oral gavage at a daily dosage of 30 mg/kg as previously described for a period of 8 weeks (Cherny et al. (2001) Neuron 30: 665-676); controls received vehicle alone.
MRI studies were performed using a Bruker AMX500 11.7 tesla MRI system as previously described (Gilissen et al. (1998) Am. J. Primatol. 45: 291-299). Brains were fixed as described above and MRI performed in the coronal plane. Comparisons of SN hypointensity (dark area) on T2-weighted MR samples encompassing SNc, SNr, and red nucleus were performed (IPLab Spectrum, Scientific Image Processing from Scanalytics, Inc.)(Morgan et al., 1998). Intensity was normalized using cortical white matter as control.
SN was dissected, snap frozen in liquid nitrogen, lypholized and dry weight/tissue measured. Preweighed lypholized samples were next taken up in 0.1 ml of concentrated nitric acid (Aristar, BDH) and allowed to digest overnight. […]

[2] = test system: MPTP-induced oxidative stress; experiment: SN GSH levels after MPTP; assay type: in vivo, mouse; conditions: CQ pretreated animals, 24 hrs after MPTP, n=6
Procedure: Following MPTP or saline injection, GSH levels were measured in the SN by the method of Griffith (Griffith (1980) Anal. Biochem. 106; 207-212).

[3] = test system: MPTP-mediated oxidative stress; experiment: Slot blot of 4-HNE-protein conjugates and protein carbonyls in SN after MPTP; assay type: in vivo, mouse; conditions: CQ pretreated animals, 24 hrs after MPTP, n=6
Procedure: SN were dissected and homogenized in 10 mM HEPES-KOH, pH 7.2, 2 mM EDTA, 0.1% CHAPS, 5 mM dithiothreitol (DTT), 1 mM phenylmethylsulfonyl fluoride, 10 μg/ml pepstatin A, 10 μg/ml aprotinin, and 20 μg/ml leupeptin (Nicholson et al. (1995) Nature 376: 37-43). 15 μg of total protein from each sample was either run on a 15% SDS-PAGE gel (BioRad) and transferred to nitrocellulose membrane or directly slotted onto membrane. […] Autoradiography was performed with enhanced chemiluminescence (Amersham Pharmacia). For 4HNNE-protein conjugates and protein carbonyls, relative optical band density were quantified using a Chemilmager 5500 (Alpha Innotech Corporation). Reported values are the results of three independent experiments.

[4] = test system: MPTP-induced dopaminergic SN cell loss; experiment: Stereological TH+ SN neuron counts after MPTP; assay type: in vivo, mouse
Procedure: Neuronal counts were performed on TH+ positive SN neurons using the unbiased dissector method (West (1993) Neurobiol. Aging 14: 275-285). Fixed coronal brain sections (40 μm) were immunostained with TH antibody (1:500 dilution, Chemicon), coverslipped in aqueous medium and TH+ cells counted from a total of 15-20 sections in each field per brain (i.e. every second section) at a magnification of 100× using the optical fractionator approach.
(§1) Animals were injected with either 15 mg/kg body weight MPTP or saline every 2 hrs, 4 doses. Dopamine, DOPAC, and HVA or MPP+ from dissected striata were analyzed by I-PLC using a 5 micrometer C-18 reverse phase column and precolumn (Brownlee Labs) followed by electrochemical detection with a glassy carbon electrode (Klivenyi et al. (2000) J. Neurosci. 20: 1-7).

MPTP-induced toxicity = experiment: Striatal dopamine, DOPAC and HVA by HPLC after MPTP; assay type: in vivo, mouse
Procedure: as §1

monoamine oxidase-B = experiment: MAO-B activity in brain homogenates; assay type: in vivo, mouse; conditions: CQ-fed, n=4
Procedure: Brain homogenates were analyzed by the toulene extraction method using 10 μM 14-C labeled PEA as substrate (NEN, […]) as previously described (Wei et al. (1996) J. Neurosci. Res. 46: 666-673; Wei et al. (1997) J. Neurosci. Res. 50: 618-626). Values are reported as cpm/μg protein.

[5] = Open field analysis of spontaneous motor activity; assay type: in vivo, mouse; conditions: mice fed CQ up to 8 weeks vs. saline-fed, n=8
Procedure: 6-8 mice in each category were tested. Behavioral parameters were monitored in a Coulbourn Instrument Tru Scan activity monitor. Motor activities were recorded every 100 ms for a 10 minute period. Tru Scan 99 software was used to generate experimental protocols and to acquire and store the data. The data was exported to EXCEL and analyzed via one way ANOVA.

[6] = Phase II, similar dosage, with B12 supplementation; cited from earlier work
[7] = lipophilic; cited from earlier work
[8] = Yassin et al. 2000; cited from earlier work
plaque formation = conditions: Cherny et al. 2001; cited from earlier work
[9] = mouse, in vivo; cited from earlier work

Q: What does the source list for Oc1c(I)cc(Cl)c2cccnc12 [CQ, 5-chloro-7-iodo-8-hydroxyquinoline]?
A: Reduction of total SN iron levels, CQ-fed vs. saline-fed animals [1]: approximately 30%; Change in SN GSH following MPTP [2]: no significant changes; Change in 4-HNE-protein conjugates in SN following MPTP [3]: no significant changes; Change in protein carbonyl levels in SN following MPTP [3]: no significant changes; Decrease in SN TH+ cell numbers following MPTP ([4]; CQ-fed animals, 7 days after MPTP): 25%; SN TH+ cell numbers ([4]; CQ-fed, MPTP-treated, n=5): 11,462±915; Difference in striatal dopamine levels, saline vs. CQ-fed (MPTP-induced toxicity; absence of MPTP treatment): No significant difference; Loss of striatal dopamine following MPTP (MPTP-induced toxicity; animals pretreated with CQ, 7 days after MPTP): 41%; MAO-B activity (monoamine oxidase-B): 4500±950 cpm/μg protein; Adverse behavioral effects in open field tests [5]: no significant signs of adverse behavioral effects; Adverse effects attributable to CQ administration [6]: No adverse effects; Blood-brain barrier passage [7]: freely crosses the blood-brain barrier; Depletion in systemic iron levels [8]: does not result in depletion; Levels of brain and serum vitamin B12 [8]: lower levels; Plaque formation and behavioral declines in AD transgenic mouse model (plaque formation): inhibit plaque formation and accompanying behavioral declines; Toxicity of the compound in mice [9]: lack of toxicity
